In EP0311193B1, “Antifungal fermentation product” (priority 1987, dated 1989):
Numbered stars: 1 amine (or outer) side, 2 acyl side, 3 side chain; on linkers, the order of the positions; unused ones are H or OH. Bridge positions count the residues as written; N and C are the ends. Square brackets hold non-standard residues; d marks the D form. Peptide text beside a SMILES is read from it. * marks the point of attachment. Orn(4R-OH,5R-OH) = O=C([C@H](C[C@@H](O)[C@@H](O)N[*:3])N[*:1])[*:2]; hTyr(3S-OH,4S-OH) = N[C@H](C(=O)O)[C@H](O)[C@@H](O)c1ccc(O)cc1; Pro(3S-OH,4S-Me) = C[C@H]1CN[C@H](C(=O)O)[C@H]1O; Gln(3R-OH) = NC(=O)C[C@@H](O)[C@H](N)C(=O)O; Hyp = O=C(O)[C@@H]1C[C@@H](O)CN1; X1 = CCC(C)CC(C)CCCCCCCCC(=O)*

Columns and labels:
Candida albicans [1] = test: agar dilution assay (MIC), expanded panel of strains; format: cell-based; conditions: against 5 of 34 different strains of Candida albicans, 28°C, 48 hours
Description: The activity may be seen in an agar dilution assay employing a yeast nitrogen base dextrose agar medium. In carrying out the assay, Compound I was solubilized in 10 percent dimethyl sulfoxide (DMSO) supplemented with one drop of Tween 20. Twofold dilutions were made with sterile distilled water/10 percent DMSO to obtain final drug concentrations in the agar dilution assay plates ranging from 128 to 0.06 µg/ml.
The yeast cultures, maintained in yeast maltose (YM) broth, were transferred to fresh YM medium and incubated overnight at 35°C with shaking (250 rpm). After incubation, each culture was diluted in sterile saline to yield a final concentration of 3x10⁵ to 3x10⁶ colony forming units (CFU)/ml.
Each prepared plate was inoculated using a Denley Multipoint Inoculator (Denley, Sussex, England) which delivers approximately 0.001 milliliter to the agar surface resulting in inoculation of from 3x10² to 3x10³ CFUs. The plates were incubated at 28°C for 48 hours. The minimum inhibitory concentrations (MICs) were recorded as the lowest concentrations of drug showing no growth or less than three CFU/spot.
In a similar assay, Compound I was tested against an expanded panel of 34 different strains of Candida albicans and 13 different strains of Candida parapsilosis.

filamentous fungi = test: disc diffusion antifungal assay, filamentous fungi; format: cell-based; conditions: disc diffusion against the listed filamentous fungi; 28°C or 37°C, 24 hours
Description: (§1) This may be seen in an antifungal assay employing a disc diffusion method against yeasts and filamentous fungi (molds).
(§2) In the disc diffusion method, seeded assay plates are first prepared in one of the following manners according to the type of organism.
Inocula for filamentous fungi are prepared by scraping the surface of stock plates maintained on potato dextrose agar with a moistened sterile dacron swab. The spores and mycelia are then suspended in 10 milliliters of sterile potato dextrose broth and adjusted to 70 percent transmission at 660 nm.
(§3) For three strains of Candida albicans and one strain of Saccharomyces cerevisiae, sterile saline is employed in place of potato dextrose broth. Assay plates are prepared by dilution the inoculum into appropriate molten agar medium, cooled to 45°C to obtain a final concentration of 4 percent (volume/volume).
(§4) The seeded agar media thus prepared are dispensed into petri dishes for assays (11 milliliters per dish).
The samples to be tested for production of antifungal agent are applied to 6.2 mm. filter paper discs (25 microliter/disc) and air dried at 24°C. When the sample to be tested is a crude broth, it may be centrifuged prior to application. […] Following incubation, the inhibition zones are measured and recorded. […]

yeasts = test: disc diffusion antifungal assay, yeasts; format: cell-based; conditions: disc diffusion against the listed yeasts; 28°C or 37°C, 24 hours
Description: as §1, §2
Inocula for yeasts are prepared from overnight broth cultures then diluted into potato dextrose […] to a final concentration of either 40 percent or 70 percent transmission at 660 nm.
as §3, §4
The samples to be tested for production of antifungal agent are applied to 6.2 mm. filter paper discs (25 microliter/disc) and air dried at 24°C. When the sample to be tested is a crude broth, it may be centrifuged prior to application. The discs bearing the material to be tested are then applied employing sterile conditions to the seeded assay plates and the samples rewet with 25 percent sterile aqueous dimethylsulfoxide (25 µl/disc). […] Following incubation, the inhibition zones are measured and recorded. […]

Candida albicans [2] = test: mice experimentally infected with Candida albicans; format: in vivo
Source text: These properties point to a new antifungal drug with great potential in the therapy of human mycotic infections.

red blood cell = test: titration/hemolysis assay (red blood cell lysis); conditions: highest drug concentration that did not lyse the red blood cells; 25°C, two hours; range tested 0.39 to 400 µg/ml in 5 percent dextrose
Description: Concentration of drug in the range of from 0.39 to 400 µg/ml in 5 percent dextrose and a drug free control were employed.
In carrying out the determination, the assay tubes prepared by mixing together 2 milliliters of appropriate drug dilution and 0.5 milliliter of red blood cell suspension were gently shaken to mix the contents and then the tubes were incubated at 25°C for two hours. At the end of this time, the tubes were examined visually for complete or partial red blood cell hemolysis and compared to a drug free control.

| SMILES | MIC (Candida albicans [1]) | antifungal properties (inhibition zones) (filamentous fungi) | antifungal properties (inhibition zones) (yeasts) | eradication of Candida albicans from kidneys (Candida albicans [2]; kidneys of experimentally infected mice) | survival of mice infected with Candida albicans (Candida albicans [2]; mice infected with Candida albicans) | minimum lytic concentration (MLC) (red blood cell) |
| --- | --- | --- | --- | --- | --- | --- |
| CCC(C)CC(C)CCCCCCCCC(=O)N[C@H]1C[C@@H](O)[C@@H](O)NC(=O)[C@@H]2[C@@H](O)[C@@H](C)CN2C(=O)[C@H]([C@H](O)CC(N)=O)NC(=O)[C@H]([C@H](O)[C@@H](O)c2ccc(O)cc2)NC(=O)[C@@H]2C[C@@H](O)CN2C(=O)[C@H]([C@@H](C)O)NC1=O (stereo partly drawn) [Compound I, 1-[(4R, 5R) 4,5-dihydroxy N²-(10,12-dimethyl-1-oxotetradecyl)-L-ornithine]-5-(threo-3-hydroxy-L-glutamine)echinocandin B] (X1-[Orn(4R-OH,5R-OH)]T[Hyp][hTyr(3S-OH,4S-OH)][Gln(3R-OH)][Pro(3S-OH,4S-Me)]; lactam 1-C) | > 1 µg/mL | good antifungal properties | good antifungal properties | eradicate Candida albicans from kidneys | significantly prolong the survival | – |
| C[C@@H]1[C@H](O)[C@@H](C)/C=C/C=C/C=C/C=C/C=C/C=C/C=C/[C@H](O[C@@H]2O[C@H](C)[C@@H](O)[C@H](N)[C@@H]2O)C[C@@H]2O[C@](O)(C[C@@H](O)C[C@@H](O)[C@H](O)CC[C@@H](O)C[C@@H](O)CC(=O)O[C@H]1C)C[C@H](O)[C@H]2C(=O)O [amphotericin B] | – | – | – | – | – | 12.5 µg/mL |
